The values that follow come from patent US7326684B2, “Peptides for enhancing resistance to microbial infections” (priority 2002, dated 2008).

Data set [1] has as its system mouse peritoneal macrophages infected with S. typhimurium 415. Description: Combined action of streptomycine and peptide on digestion of S. typhimurium 415 by mouse peritoneal macrophages in vitro. The following applies: streptomycine 50 μg/ml alone or 10 μg/ml + peptide 1 nM.
The target in data set [2] is non-opioid receptors for β-endorphin on T lymphocytes. Type of data set: binding, human.
Data set [3] has as its system T lymphocytes from the blood of healthy donors. Description: Con A-induced proliferation of T lymphocytes. Format: cell-based, human.
Data set [4] has as its target non-opioid receptors for β-endorphin on T lymphocytes. Type of data set: binding, human. The conditions noted are these: for Ki: read-out: Ki, inhibition of [125I]β-endorphin binding.
The conditions of data set [5]: mouse, in vivo.
Data set [6] has as its system mouse peritoneal macrophages infected with S. typhimurium 415. The data set can be described thus: Phagocytosis (digestion) of S. typhimurium 415 by mouse peritoneal macrophages in vitro. The conditions noted are these: for Time within which phagocytes completely digested the captured microbes: peptide 1 nM; for BCA, bacterial cytocidal activity, percentage of phagocytes destroyed by intracellular bacteria / PA, phagocytic activity, percentage of macrophages participating in phagocytosis / PN, phagocytic number, average number of microbes per macrophage: tuftsin 100 nM, ± SEM.

In data set [7] the target is high-affinity (non-opioid) β-endorphin receptors on murine peritoneal macrophages. The conditions noted are these: read-out: Ki, inhibition of [125I]β-endorphin binding to non-opioid receptors.
A short description of another data set: in vivo. The following applies: BCA, mouse, ip.
Data set [8] concerns the target non-opioid (naloxone-insensitive) receptors for β-endorphin on T lymphocytes from normal human blood (human). The data set can be described thus: radioligand saturation binding on human T lymphocytes, Scatchard plot, in the absence of naloxone.
For data set [9] the target is unchanged. Description: radioligand saturation binding on human T lymphocytes, Scatchard plot, in the presence of naloxone.
Data set [10] has the same target. The data set can be described thus: displacement of 1 nM [125I]β-endorphin from human T lymphocytes; Ki=IC50/(1+[L]/Kd).
Data set [11] has the same target. The data set can be described thus: radioligand saturation binding on human T lymphocytes, 4 °C, Scatchard analysis.
The target is the same in data set [12]. Description: radioligand saturation binding on human T lymphocytes, Scatchard analysis, one-site model.
The mark [13] stands for this setting: read-out: Kd of labeled peptide binding to T lymphocytes.
[14] abbreviates: T lymphocytes of healthy donors.
Setting [15] is: phagocytosis time 1 h, pentarphin, cyclopentarphin 1 nM.
The mark [16] stands for this setting: phagocytosis time 2 h, pentarphin, cyclopentarphin 1 nM.
Where [17] appears, read: phagocytosis time 4 h, pentarphin, cyclopentarphin 1 nM.
Where [18] appears, read: phagocytosis time 7 h, pentarphin, cyclopentarphin 1 nM.
The mark [19] stands for this setting: phagocytosis time 12 h, pentarphin 1 nM.

Like-named read-outs stand apart in the source and are kept apart here. *1 amine or outer side, *2 acyl side, *3 side chain or, on linkers, in order; H or OH if unused. Where a SMILES comes first, the peptide text is derived from it. Where no end group is shown, it is not given here. [ ]: non-standard residue; d: D form. Tyr(3-125I) = 3-[125I]iodotyrosine, O=C([C@H](Cc1ccc(O[*:3])c([125I])c1)N[*:1])[*:2]; Tyr(3-I) = N[C@@H](Cc1ccc(O)c(I)c1)C(=O)O A value given as a limit tells only on which side of the number the result lay.

For `[H]/N=C(/N)N[C@H]1[C@H](O)[C@@H](O)[C@H](O[C@@H]2O[C@@H](C)[C@](O)(C=O)[C@H]2O[C@@H]2O[C@@H](CO)[C@H](O)[C@@H](O)[C@@H]2NC)[C@@H](N/C(N)=N\[H])[C@@H]1O` [Streptomycine], in data set [1] (phagocytosis time 1 h, ± SEM), the “BCA, bacterial cytocidal activity” value is on record as 1.04 ± 0.32%; the “PA, phagocytic activity” value is listed as 86.45 ± 2.13%; the “PN, phagocytic number” value is recorded as 8.56 ± 0.76 n. For the same molecule, in data set [1] (phagocytosis time 2 h, ± SEM), the “BCA, bacterial cytocidal activity” value is 1.12 ± 0.74%; the “PA, phagocytic activity” value was found to be 96.17 ± 1.76%; the “PN, phagocytic number” value is 2.03 ± 0.46 n. In addition, in data set [1] (phagocytosis time 4 h), the “BCA, bacterial cytocidal activity” value amounted to 0%; the “PA, phagocytic activity” value was determined as 0%; the “PN, phagocytic number” value is listed as 0 n.
In general, Kd refers to a measure of binding affinity in units of concentration. For `CC(C)[C@H](N)C(=O)N[C@@H](CCCCN)C(=O)NCC(=O)N[C@@H](Cc1ccccc1)C(=O)N[C@@H](Cc1ccc(O)c(I)c1)C(=O)O` [[^125I]-H-VKGFY-OH] (H-VKGF[Tyr(3-I)]-OH), the dissociation constant (Kd) in [2] (setting [13]) is 36.3 ± 0.5 nM.
In the case of `CC(C)C[C@H](NC(=O)[C@H](CS)NC(=O)[C@@H](NC(=O)[C@H](CC(C)C)NC(=O)[C@@H](N)CO)[C@@H](C)O)C(=O)N[C@H](C(=O)N[C@@H](CCCCN)C(=O)NCC(=O)N[C@@H](Cc1ccccc1)C(=O)N[C@@H](Cc1ccc(O)c(I)c1)C(=O)O)C(C)C` [[^125I]-immunorphin] (H-SLTCLVKGF[Tyr(3-I)]-OH), the Kd in [2] (setting [13]) amounted to 7 ± 0.3 nM; in data set [2] (read-out: Kd of labeled peptide binding to T lymphocytes in the presence of naloxone) it was 7.4 ± 0.2 nM.
`C=CCN1CC[C@]23c4c5ccc(O)c4O[C@H]2C(=O)CC[C@@]3(O)[C@H]1C5` [naloxone]: the “Effect on Con A-induced proliferation of T lymphocytes” value (from here on “Effect on Con A-induced proliferation”) in data set [3] (setting [14]) is listed as “not active”.
For orientation: Ki means a measure of affinity in units of concentration, obtained from inhibition or displacement. Consider H-CLVKGFY-OH [H-CLVKGFY-OH], for which, in data set [4], the Ki stood at 3.4 nM.
Still for that read-out and setting: the result for H-LTCLVKGFY-OH reads 1 nM; that for H-LVKGFY-OH [H-LVKGFY-OH], 8 nM; that for H-TCLVKGFY-OH, 2.2 nM.
As usually defined, the LD50 is the dose at which mortality reaches 50%. A lower LD50 goes with a more toxic substance. As to “H-VKGFY-OH [Pentarphin, Val-Lys-Gly-Phe-Tyr]”, in [5], the Immunogenicity entry is recorded as “No immunogenicity”. The Ki in data set [4] came to 15 nM; in data set [7], 12 nM. Besides, in data set [6], the “Time within which phagocytes completely digested the captured microbes” value is given as no more than 12 h. The “BCA, bacterial cytocidal activity, percentage of phagocytes destroyed by intracellular bacteria” value in data set [6] (setting [15]) was 1.08 ± 0.71%; in data set [6] (setting [16]), 1.55 ± 0.65%; in [6] (setting [17]), 9.32 ± 1.32%; in [6] (setting [19]), 2.35 ± 1.21%. For the same molecule, the “PA, phagocytic activity, percentage of macrophages participating in phagocytosis” value (from here on “PA, phagocytic activity, percentage”) in [6] (setting [15]) is listed as 84.08 ± 2.12%; in data set [6] (setting [16]) it was 89.15 ± 1.78%; in [6] (setting [17]) it was 66.82 ± 1.14%; in data set [6] (setting [18]), 23.31 ± 0.84%; in data set [6] (setting [19]), 3.73 ± 0.64%. Also, the “PN, phagocytic number, average number of microbes per macrophage” value (from here on “PN, phagocytic number … per macrophage”) was 7.11 ± 0.15 n in [6] (setting [15]); 9.29 ± 0.74 n in data set [6] (setting [16]); 6.02 ± 0.66 n in [6] (setting [17]); 1.03 ± 0.24 n in [6] (setting [18]); 0.66 ± 0.12 n in [6] (setting [19]). Also, in data set [3], the “Effect on Con A-induced proliferation” value is “stimulate”. In addition, in [3], the “Stimulating effect on T lymphocyte proliferation in presence of naloxone” value is given as “not inhibited by naloxone”. The dissociation constant Kd in data set [2] (setting [13]) is 36.3 ± 0.5 nM. The median lethal dose (LD50) in the data set “in vivo” came out at 2500 mg/kg.
For the molecule SLTCLVKGFY [immunorphin], the “Effect on Con A-induced proliferation” value in data set [3] (setting [14]) is reported as “stimulate”.
“Thr-Lys-Pro-Arg (TKPR; printed: Thr-Lys-Pro-Arg) [Tuftsin, reference compound]”: the “BCA, bacterial cytocidal activity, percentage of phagocytes destroyed by intracellular bacteria” value in data set [6] (setting [15]) is recorded as 1.41 ± 0.27%; in data set [6] (setting [16]), 8.12 ± 0.99%; in data set [6] (setting [17]), 29.34 ± 0.75%; in [6] (setting [18]), 31.46 ± 1.23%; in [6] (setting [19]), 7.64 ± 1.38%. The “PA, phagocytic activity, percentage” value was found to be 66.07 ± 1.82% in data set [6] (setting [15]); 74.11 ± 1.42% in data set [6] (setting [16]); 61.97 ± 1.18% in data set [6] (setting [17]); 38.48 ± 0.23% in data set [6] (setting [18]); 9.31 ± 0.29% in data set [6] (setting [19]). Further, the “PN, phagocytic number … per macrophage” value is listed as 5.84 ± 0.27 n in data set [6] (setting [15]); 7.31 ± 0.25 n in data set [6] (setting [16]); 6.29 ± 0.48 n in [6] (setting [17]); 3.32 ± 0.56 n in data set [6] (setting [18]); 1.36 ± 0.86 n in [6] (setting [19]). In addition, the “Activity, times lower than pentarphin/cyclopentarphin” value in [6] (tuftsin acted the same way at 100 nM versus 1 nM) was 100 times.
[125I]-immunorphin (peptide): the Kd in [8] is 7 nM; in data set [9], 7.4 nM.
With “[Met^5]enkephalin [Met-enkephalin, reference compound]”, in data set [4], the “Inhibition of β-endorphin binding in displacement assay” value is on record as “not inhibited”. Further, the “Effect on Con A-induced proliferation” value in [3] is “not active”.
“cyclo(Val-Lys-Gly-Phe-Tyr) (VKGFY; cyclic; printed: Val-Lys-Gly-Phe-Tyr) [Cyclopentarphin]”: in data set [6], the “Time within which phagocytes completely digested the captured microbes” value was no more than 7 h. Moreover, the “BCA, bacterial cytocidal activity, percentage of phagocytes destroyed by intracellular bacteria” value worked out at 1.25 ± 0.64% in data set [6] (setting [15]), 1.06 ± 0.49% in data set [6] (setting [16]), 2.13 ± 0.60% in data set [6] (setting [17]) and 2.22 ± 1.31% in data set [6] (setting [18]). Further, the figures for the “PA, phagocytic activity, percentage” value in data set [6] (setting [15]), in data set [6] (setting [17]) and in [6] (setting [18]) were 87.81 ± 3.14%, 57.43 ± 2.01% and 1.74 ± 0.44%, respectively. The “PN, phagocytic number … per macrophage” value in data set [6] (setting [15]) worked out at 7.78 ± 0.39 n; in data set [6] (setting [16]), 8.81 ± 0.27 n; in data set [6] (setting [17]), 5.32 ± 0.51 n; in data set [6] (setting [18]) it was 0.27 ± 0.20 n.
Molecule immunorphin (H-…-OH) (peptide) gave a Ki in [10] of 0.6 nM.
Turning to YGGFMTSEKSQTPLVTLFKNAIIKNA[Tyr(3-125I)]KKGE [(3-[125I]iodotyrosyl27)β-endorphin], the dissociation constant Kd in data set [11] turned out to be 0.25 nM.
Molecule H-LTCLVKGFY-OH [H-…-OH] returned a Ki in [10] of 1 nM.
For the molecule H-VKGFY-OH (also: 125I label, residue not given here) [[125I]-H-VKGFY-OH], the Kd in data set [12] amounted to 36.3 nM.
As to H-TCLVKGFY-OH [H-TCLVKGFY-OH], in data set [10], the Ki came to 2.2 nM.
For H-CLVKGFY-OH [H-CLVKGFY-OH], the inhibition constant (Ki) in data set [10] was determined as 3.4 nM.
On the same count and under the same terms, the result for H-VKGFY-OH [pentarphin (H-VKGFY-OH)] reads 15 nM; that for H-LVKGFY-OH [H-LVKGFY-OH], 8 nM.
